Consider 21 compounds from patent US11459315B2, “Modulators of methyl modifying enzymes, compositions and uses thereof” (Constellation Pharmaceuticals, Inc., priority 2017, dated 2022).

Molecules are shown by their SMILES. Where two headings read alike, the source gives them in different places. Bounds are passed on as bounds.

As a reminder, the IC50 is the point on the concentration scale where inhibition reaches its midpoint. As usually defined, the EC50 is the concentration needed to bring the measured effect to its halfway point.

The target in one experiment is PRC2 containing wt EZH2 (Homo sapiens (Human), UniProt Q15910). Briefly: EZH2 biochemical assay (IC50), 3H-SAM incorporation into biotinylated H3 peptide. To be noted: 30 pM PRC2 containing wt EZH2, 3-5 h pre-incubation. In short, it runs like this:
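Activity was measured as ³H-methyl transfer to a biotinylated H3K27me1 peptide over 18-22 h at room temperature, with capture on streptavidin flash plates. The 30 pM wt-EZH2 PRC2 complex was first pre-incubated 3-5 h with compound, 450 nM SAM/450 nM ³H-SAM and 2 µM H3K27me3 activator (pH 8.5, 0.8% DMSO). Four-parameter fits gave IC50.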

In experiment [1] the test system is H3K27me3 mark in HeLa cells (EZH2). In words: H3K27me3 Alpha Hela Assay (AlphaLISA). It is filed as cell-based. Particulars: Homo sapiens, HeLa, 72 h, HeLa cells, 72 hrs; read-out: EZH2 Cell H3K27me3 Alpha HeLa (EC50 K27me3). In short, it runs like this:
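HeLa cells (1,000/well) treated with ten 3-fold compound doses for 72 h at 37 °C; lysates extracted and H3K27me3 detected by AlphaLISA with anti-K27me3 acceptor beads, biotinylated anti-H3 (3 nM) and streptavidin donor beads. EC50 from DMSO-normalized dose-response curves; duplicate plate assessed viability.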
A general note: In Alpha technology, singlet oxygen from a donor bead excites a nearby acceptor bead.

PRC2 containing wt EZH2, sequence (Q15910 whole entry): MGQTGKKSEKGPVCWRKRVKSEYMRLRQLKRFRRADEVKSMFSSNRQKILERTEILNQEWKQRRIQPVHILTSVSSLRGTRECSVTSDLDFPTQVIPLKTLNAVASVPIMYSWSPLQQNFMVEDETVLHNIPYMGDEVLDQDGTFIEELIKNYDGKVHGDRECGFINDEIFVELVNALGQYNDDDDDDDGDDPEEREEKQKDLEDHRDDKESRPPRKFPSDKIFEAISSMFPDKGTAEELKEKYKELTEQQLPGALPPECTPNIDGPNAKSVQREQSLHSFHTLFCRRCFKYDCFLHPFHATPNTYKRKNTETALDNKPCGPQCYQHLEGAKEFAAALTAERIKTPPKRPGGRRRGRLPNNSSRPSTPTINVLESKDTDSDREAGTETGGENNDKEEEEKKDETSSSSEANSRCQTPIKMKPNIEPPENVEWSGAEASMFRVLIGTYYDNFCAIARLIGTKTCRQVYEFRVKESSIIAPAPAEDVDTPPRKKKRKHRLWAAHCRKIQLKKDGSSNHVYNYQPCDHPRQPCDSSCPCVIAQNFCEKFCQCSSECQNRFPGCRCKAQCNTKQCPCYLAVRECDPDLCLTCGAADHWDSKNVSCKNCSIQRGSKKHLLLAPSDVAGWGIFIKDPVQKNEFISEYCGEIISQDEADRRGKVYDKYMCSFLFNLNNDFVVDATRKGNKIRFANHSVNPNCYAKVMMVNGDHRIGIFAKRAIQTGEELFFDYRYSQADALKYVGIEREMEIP
PRC2 containing wt EZH2, sequence (O75530 whole entry partner): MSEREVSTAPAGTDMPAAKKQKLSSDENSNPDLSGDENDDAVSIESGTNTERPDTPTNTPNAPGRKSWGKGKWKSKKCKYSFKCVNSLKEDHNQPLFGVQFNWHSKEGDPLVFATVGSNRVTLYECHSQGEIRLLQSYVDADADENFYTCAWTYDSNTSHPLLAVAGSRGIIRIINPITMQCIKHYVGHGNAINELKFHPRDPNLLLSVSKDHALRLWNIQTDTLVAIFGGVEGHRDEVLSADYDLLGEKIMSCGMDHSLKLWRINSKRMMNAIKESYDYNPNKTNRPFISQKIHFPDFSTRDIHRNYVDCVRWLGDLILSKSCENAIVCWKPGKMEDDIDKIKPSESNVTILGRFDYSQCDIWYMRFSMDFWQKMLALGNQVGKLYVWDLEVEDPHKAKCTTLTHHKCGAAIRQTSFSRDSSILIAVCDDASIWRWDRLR
PRC2 containing wt EZH2, sequence (Q15022 whole entry partner): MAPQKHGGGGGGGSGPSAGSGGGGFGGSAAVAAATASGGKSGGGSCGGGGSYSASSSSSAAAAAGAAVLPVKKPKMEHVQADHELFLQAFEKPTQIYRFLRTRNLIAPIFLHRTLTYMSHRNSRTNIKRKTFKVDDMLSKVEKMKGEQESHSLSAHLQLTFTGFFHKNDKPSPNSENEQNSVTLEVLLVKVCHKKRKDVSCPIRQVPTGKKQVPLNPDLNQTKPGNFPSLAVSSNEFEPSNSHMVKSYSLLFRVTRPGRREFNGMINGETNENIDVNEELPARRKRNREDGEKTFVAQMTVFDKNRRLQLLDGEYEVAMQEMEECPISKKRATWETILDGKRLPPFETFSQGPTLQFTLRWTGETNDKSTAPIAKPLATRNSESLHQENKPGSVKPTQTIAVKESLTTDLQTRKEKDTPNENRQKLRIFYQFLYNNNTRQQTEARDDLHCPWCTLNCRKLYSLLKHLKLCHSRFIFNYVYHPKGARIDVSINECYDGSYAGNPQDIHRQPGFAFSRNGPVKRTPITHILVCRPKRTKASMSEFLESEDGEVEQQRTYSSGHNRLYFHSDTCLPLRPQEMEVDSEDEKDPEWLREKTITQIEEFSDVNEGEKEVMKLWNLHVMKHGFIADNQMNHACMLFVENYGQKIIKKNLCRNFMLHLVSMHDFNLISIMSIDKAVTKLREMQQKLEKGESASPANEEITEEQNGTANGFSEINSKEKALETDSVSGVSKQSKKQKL
PRC2 containing wt EZH2, sequence (Q09028 whole entry partner): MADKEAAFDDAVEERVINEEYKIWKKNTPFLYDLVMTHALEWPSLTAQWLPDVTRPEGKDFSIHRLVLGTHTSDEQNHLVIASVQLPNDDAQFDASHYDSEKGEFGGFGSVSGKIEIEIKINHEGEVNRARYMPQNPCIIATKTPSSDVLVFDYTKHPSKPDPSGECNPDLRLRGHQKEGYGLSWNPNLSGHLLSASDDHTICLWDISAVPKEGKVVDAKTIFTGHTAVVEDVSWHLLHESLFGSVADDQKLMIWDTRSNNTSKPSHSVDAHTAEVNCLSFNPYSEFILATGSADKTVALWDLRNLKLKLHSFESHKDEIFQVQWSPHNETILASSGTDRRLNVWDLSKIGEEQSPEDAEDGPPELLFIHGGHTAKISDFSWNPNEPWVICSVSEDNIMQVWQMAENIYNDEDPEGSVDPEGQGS
PRC2 containing wt EZH2, sequence (Q6ZN18 whole entry partner): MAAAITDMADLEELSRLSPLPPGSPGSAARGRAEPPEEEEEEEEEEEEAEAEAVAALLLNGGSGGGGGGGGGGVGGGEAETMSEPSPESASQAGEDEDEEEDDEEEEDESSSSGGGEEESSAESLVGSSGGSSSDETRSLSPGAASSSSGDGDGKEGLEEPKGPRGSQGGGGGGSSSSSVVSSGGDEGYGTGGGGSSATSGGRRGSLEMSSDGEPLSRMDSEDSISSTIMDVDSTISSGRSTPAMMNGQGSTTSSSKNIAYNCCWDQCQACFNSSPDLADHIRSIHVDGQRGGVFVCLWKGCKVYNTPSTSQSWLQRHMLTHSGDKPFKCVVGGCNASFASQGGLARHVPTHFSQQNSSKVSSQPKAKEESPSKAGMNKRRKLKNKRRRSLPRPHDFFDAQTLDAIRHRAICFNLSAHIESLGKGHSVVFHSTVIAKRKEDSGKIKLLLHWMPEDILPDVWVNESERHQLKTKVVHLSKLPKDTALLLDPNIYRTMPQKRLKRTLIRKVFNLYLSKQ

Compound `CSc1cc(C)[nH]c(=O)c1CNC(=O)c1c(C)n([C@H](C)C2CCN(C3CC3)CC2)c2ccccc12` [Example 48, (R)-1-(1-(1-cyclopropylpiperidin-4-yl)ethyl)-2-methyl-N-((6-methyl-4-(methylthio)-2-oxo-1,2-dihydropyridin-3-yl)methyl)-1H-indole-3-carboxamide] gave an IC50 against PRC2 containing wt EZH2 (EZH2 (IC50)) of less than 0.0005 µM. Also, the EC50 in experiment [1] was less than 0.01 µM.
With `CSc1cc(C)[nH]c(=O)c1CNC(=O)c1c(C)n([C@H](C)C2CC(NC3COC3)C2)c2ccccc12` (stereo partly drawn) [Example 49, 2-methyl-N-((6-methyl-4-(methylthio)-2-oxo-1,2-dihydropyridin-3-yl)methyl)-1-((R)-1-(3-(oxetan-3-ylamino)cyclobutyl)ethyl)-1H-indole-3-carboxamide], the concentration for half-maximal inhibition (IC50) on PRC2 containing wt EZH2 (read-out: EZH2 (IC50)) is 0.0005 to 0.005 µM. For the same compound, the half-maximal effective concentration (EC50) in experiment [1] is greater than 0.1 µM.
In turn, `CSc1cc(C)[nH]c(=O)c1CNC(=O)c1c(C)n([C@H](C)C2CCN(C3CC3)CC2)c2ncncc12` [Example 50, (R)-7-(1-(1-cyclopropylpiperidin-4-yl)ethyl)-6-methyl-N-((6-methyl-4-(methylthio)-2-oxo-1,2-dihydropyridin-3-yl)methyl)-7H-pyrrolo[2,3-d]pyrimidine-5-carboxamide] had an IC50 at PRC2 containing wt EZH2 (EZH2 (IC50)) of less than 0.0005 µM. Moreover, the EC50 in experiment [1] is less than 0.01 µM.
On the same counts, the results for `CSc1cc(C)[nH]c(=O)c1CNC(=O)c1c(C)n([C@H](C)C2CCN(CCO)CC2)c2ccccc12` [Example 52, (R)-1-(1-(1-(2-hydroxyethyl)piperidin-4-yl)ethyl)-2-methyl-N-((6-methyl-4-(methylthio)-2-oxo-1,2-dihydropyridin-3-yl)methyl)-1H-indole-3-carboxamide] are less than 0.0005 µM and greater than 0.1 µM.
On PRC2 containing wt EZH2 (EZH2 (IC50)), `CSc1cc(C)[nH]c(=O)c1CNC(=O)c1c(C)n([C@H](C)C2CN(CC(F)(F)F)C2)c2ccccc12` [Example 54, (R)-2-methyl-N-((6-methyl-4-(methylthio)-2-oxo-1,2-dihydropyridin-3-yl)methyl)-1-(1-(1-(2,2,2-trifluoroethyl)azetidin-3-yl)ethyl)-1H-indole-3-carboxamide] came in with an IC50 of 0.0005 to 0.005 µM. In experiment [1], the 50% effective concentration (EC50) is 0.01 to 0.1 µM.
On to `CSc1cc(C)[nH]c(=O)c1CNC(=O)c1c(C)n([C@@H](C)C2CN(CC(F)(F)F)C2)c2ccccc12` [Example 55, (S)-2-methyl-N-((6-methyl-4-(methylthio)-2-oxo-1,2-dihydropyridin-3-yl)methyl)-1-(1-(1-(2,2,2-trifluoroethyl)azetidin-3-yl)ethyl)-1H-indole-3-carboxamide], for which, on PRC2 containing wt EZH2 (EZH2 (IC50)), the IC50 lay within 0.0005 to 0.005 µM. Also, in experiment [1], the concentration giving a half-maximal response (EC50) lay in the range of 0.01 to 0.1 µM.
With `CSc1cc(C)[nH]c(=O)c1CNC(=O)c1c(C)n([C@H](C)[C@H]2CCN(C3CC3)C[C@H]2F)c2ccccc12` [Example 56, 1-((R)-1-((3S,4R)-1-cyclopropyl-3-fluoropiperidin-4-yl)ethyl)-2-methyl-N-((6-methyl-4-(methylthio)-2-oxo-1,2-dihydropyridin-3-yl)methyl)-1H-indole-3-carboxamide], the IC50 against PRC2 containing wt EZH2 (EZH2 (IC50)) was less than 0.0005 µM. Besides, the 50% effective concentration (EC50) in experiment [1] is less than 0.01 µM.
For `CSc1cc(C)[nH]c(=O)c1CNC(=O)c1c(C)n([C@H](C)C2CCN(C3CC3)CC2)c2cc(F)ccc12` [Example 57, (R)-1-(1-(1-cyclopropylpiperidin-4-yl)ethyl)-6-fluoro-2-methyl-N-((6-methyl-4-(methylthio)-2-oxo-1,2-dihydropyridin-3-yl)methyl)-1H-indole-3-carboxamide], in that order: less than 0.0005 µM and less than 0.01 µM.
As to `CSc1cc(C)[nH]c(=O)c1CNC(=O)c1c(C)n([C@H](C)C2CCN(C3CC3)CC2)c2ncc(F)cc12` [Example 58, (R)-1-(1-(1-cyclopropylpiperidin-4-yl)ethyl)-5-fluoro-2-methyl-N-((6-methyl-4-(methylthio)-2-oxo-1,2-dihydropyridin-3-yl)methyl)-1H-pyrrolo[2,3-b]pyridine-3-carboxamide], the 50% inhibitory concentration (IC50) on PRC2 containing wt EZH2 (EZH2 (IC50)) was less than 0.0005 µM. Also, the EC50 in experiment [1] is less than 0.01 µM.
`CSc1cc(C)[nH]c(=O)c1CNC(=O)c1c(C)n([C@H](C)C2CCN(CC(F)F)CC2)c2ncccc12` [Example 59, (R)-1-(1-(1-(2,2-difluoroethyl)piperidin-4-yl)ethyl)-2-methyl-N-((6-methyl-4-(methylthio)-2-oxo-1,2-dihydropyridin-3-yl)methyl)-1H-pyrrolo[2,3-b]pyridine-3-carboxamide] yielded an IC50 on PRC2 containing wt EZH2 (EZH2 (IC50)) of less than 0.0005 µM. The 50% effective concentration (EC50) in experiment [1] was less than 0.01 µM.
Consider `CSc1cc(C)[nH]c(=O)c1CNC(=O)c1c(C)n([C@H](C)C2CCC(NC(C)(C)C)CC2)c2ccccc12` (stereo partly drawn) [Example 61, (R)-1-(1-(4-(tert-butylamino)cyclohexyl)ethyl)-2-methyl-N-((6-methyl-4-(methylthio)-2-oxo-1,2-dihydropyridin-3-yl)methyl)-1H-indole-3-carboxamide], for which the IC50 at PRC2 containing wt EZH2 (read-out: EZH2 (IC50)) was less than 0.0005 µM. Further, the EC50 in experiment [1] lay in the range of 0.01 to 0.1 µM.
Consider `CSc1cc(C)[nH]c(=O)c1CNC(=O)c1c(C)n([C@H](C)C2CCC(NC3COC3)CC2)c2ncncc12` (stereo partly drawn) [Example 63, 6-methyl-N-((6-methyl-4-(methylthio)-2-oxo-1,2-dihydropyridin-3-yl)methyl)-7-((R)-1-(4-(oxetan-3-ylamino)cyclohexyl)ethyl)-7H-pyrrolo[2,3-d]pyrimidine-5-carboxamide], for which, at PRC2 containing wt EZH2 (read-out: EZH2 (IC50)), the IC50 is less than 0.0005 µM. The EC50 in experiment [1] was 0.01 to 0.1 µM.
In turn, `CSc1cc(C)[nH]c(=O)c1CNC(=O)c1c(C)n([C@H](C)C2CCC(N3CC(F)C3)CC2)c2ncccc12` (stereo partly drawn) [Example 65, 1-((R)-1-(4-(3-fluoroazetidin-1-yl)cyclohexyl)ethyl)-2-methyl-N-((6-methyl-4-(methylthio)-2-oxo-1,2-dihydropyridin-3-yl)methyl)-1H-pyrrolo[2,3-b]pyridine-3-carboxamide] returned an IC50 on PRC2 containing wt EZH2 (EZH2 (IC50)) of less than 0.0005 µM. Besides, the concentration for a half-maximal effect (EC50) in experiment [1] was less than 0.01 µM.
As to `CSc1cc(C)[nH]c(=O)c1CNC(=O)c1c(C)n([C@H](C)C2CCN(C3CC(F)C3)CC2)c2ncccc12` (stereo partly drawn) [Example 66, (R)-1-(1-(1-(3-fluorocyclobutyl)piperidin-4-yl)ethyl)-2-methyl-N-((6-methyl-4-(methylthio)-2-oxo-1,2-dihydropyridin-3-yl)methyl)-1H-pyrrolo[2,3-b]pyridine-3-carboxamide], the IC50 against PRC2 containing wt EZH2 (EZH2 (IC50)) was less than 0.0005 µM. Further, the half-maximal effective concentration (EC50) in experiment [1] lay within 0.01 to 0.1 µM.
Compound `CSc1cc(C)[nH]c(=O)c1CNC(=O)c1c(C)n([C@H](C)C2CCC(N3CC(F)C3)CC2)c2ncncc12` (stereo partly drawn) [Example 68, 7-((R)-1-(4-(3-fluoroazetidin-1-yl)cyclohexyl)ethyl)-6-methyl-N-((6-methyl-4-(methylthio)-2-oxo-1,2-dihydropyridin-3-yl)methyl)-7H-pyrrolo[2,3-d]pyrimidine-5-carboxamide] displayed an IC50 against PRC2 containing wt EZH2 (EZH2 (IC50)) of less than 0.0005 µM. The EC50 in experiment [1] was less than 0.01 µM.
Consider `CSc1cc(C)[nH]c(=O)c1CNC(=O)c1c(C)n([C@H](C)C2CCN(C3CC3)CC2)c2ncc(Cl)cc12` [Example 69, (R)-5-chloro-1-(1-(1-cyclopropylpiperidin-4-yl)ethyl)-2-methyl-N-((6-methyl-4-(methylthio)-2-oxo-1,2-dihydropyridin-3-yl)methyl)-1H-pyrrolo[2,3-b]pyridine-3-carboxamide], for which the IC50 on PRC2 containing wt EZH2 (EZH2 (IC50)) was less than 0.0005 µM. Besides, the concentration giving a half-maximal response (EC50) in experiment [1] was less than 0.01 µM.
On the same counts, the results for `CSc1cc(C)[nH]c(=O)c1CNC(=O)c1c(C)n([C@H](C)[C@H]2CCN(C)[C@H](C(F)(F)F)C2)c2ccccc12` [Example 71, 2-methyl-1-((R)-1-((2S,4S)-1-methyl-2-(trifluoromethyl)piperidin-4-yl)ethyl)-N-((6-methyl-4-(methylthio)-2-oxo-1,2-dihydropyridin-3-yl)methyl)-1H-indole-3-carboxamide] are less than 0.0005 µM and less than 0.01 µM.
For the compound `CSc1cc(C)[nH]c(=O)c1CNC(=O)c1c(C)n([C@H](C)C2CCC(N3CCCC3=O)CC2)c2ccccc12` (stereo partly drawn) [Example 72, 2-methyl-N-((6-methyl-4-(methylthio)-2-oxo-1,2-dihydropyridin-3-yl)methyl)-1-((R)-1-(4-(2-oxopyrrolidin-1-yl)cyclohexyl)ethyl)-1H-indole-3-carboxamide], the IC50 on PRC2 containing wt EZH2 (read-out: EZH2 (IC50)) is less than 0.0005 µM. In addition, the 50% effective concentration (EC50) in experiment [1] was 0.01 to 0.1 µM.
The compound `CSc1cc(C)[nH]c(=O)c1CNC(=O)c1c(C)n([C@H](C)C2CCN(CC(F)(F)F)CC2)c2ncncc12` [Example 73, (R)-6-methyl-N-((6-methyl-4-(methylthio)-2-oxo-1,2-dihydropyridin-3-yl)methyl)-7-(1-(1-(2,2,2-trifluoroethyl)piperidin-4-yl)ethyl)-7H-pyrrolo[2,3-d]pyrimidine-5-carboxamide] came in with an IC50 against PRC2 containing wt EZH2 (EZH2 (IC50)) of less than 0.0005 µM. Also, in experiment [1], the EC50 is less than 0.01 µM.
Regarding `CSc1cc(C)[nH]c(=O)c1CNC(=O)c1c(C)n([C@H](C)C2CCC(N3CCOC3=O)CC2)c2ccccc12` (stereo partly drawn) [Example 74, 2-methyl-N-((6-methyl-4-(methylthio)-2-oxo-1,2-dihydropyridin-3-yl)methyl)-1-((R)-1-(4-(2-oxooxazolidin-3-yl)cyclohexyl)ethyl)-1H-indole-3-carboxamide], on PRC2 containing wt EZH2 (read-out: EZH2 (IC50)), the IC50 was less than 0.0005 µM. Also, the concentration for a half-maximal effect (EC50) in experiment [1] was 0.01 to 0.1 µM.
`COC1CN(C2CCC([C@@H](C)n3c(C)c(C(=O)NCc4c(SC)cc(C)[nH]c4=O)c4cncnc43)CC2)C1` (stereo partly drawn) [Example 77, 7-((R)-1-(4-(3-methoxyazetidin-1-yl)cyclohexyl)ethyl)-6-methyl-N-((6-methyl-4-(methylthio)-2-oxo-1,2-dihydropyridin-3-yl)methyl)-7H-pyrrolo[2,3-d]pyrimidine-5-carboxamide] yielded an IC50 against PRC2 containing wt EZH2 (EZH2 (IC50)) of less than 0.0005 µM. The EC50 in experiment [1] lay within 0.01 to 0.1 µM.
